Reference: patent publication US7179954B1, “Isolated nucleic acids coding for a nuclear base transporter and uses thereof” (Carnegie Insitution of Washington, priority 1999, dated 2007)

Assays:
Assay type in all cases: cell-based
[1] = biological target: T1, FCY2 transporter (Saccharomyces cerevisiae, UniProt P17064); test: Adenine uptake by the yeast's own FCY2 transporter (competition experiment reference); details: substrate concentration 25 μM
T1 construct: in comparison to the yeast's own FCY2 transporter; endogenous in cells
T1 sequence (P17064 1-533): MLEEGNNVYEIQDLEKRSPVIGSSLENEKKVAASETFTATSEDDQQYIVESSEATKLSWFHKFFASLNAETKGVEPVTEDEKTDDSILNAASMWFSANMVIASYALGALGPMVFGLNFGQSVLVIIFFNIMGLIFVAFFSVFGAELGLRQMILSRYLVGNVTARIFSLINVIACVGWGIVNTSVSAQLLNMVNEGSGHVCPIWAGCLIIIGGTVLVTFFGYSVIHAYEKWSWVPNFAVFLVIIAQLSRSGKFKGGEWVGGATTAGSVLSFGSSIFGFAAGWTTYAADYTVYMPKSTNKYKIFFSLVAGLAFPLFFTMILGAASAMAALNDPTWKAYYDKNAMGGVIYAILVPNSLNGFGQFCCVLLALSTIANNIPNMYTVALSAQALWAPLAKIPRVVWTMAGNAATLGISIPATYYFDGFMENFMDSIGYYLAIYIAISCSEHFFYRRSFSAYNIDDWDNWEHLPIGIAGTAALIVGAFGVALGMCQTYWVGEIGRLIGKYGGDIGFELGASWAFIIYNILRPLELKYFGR
Description: For measuring the rate of uptake the yeast strains MG887ura3^−::pFL61, MG887ura3^−::pFL61-PUP1 and their original strain Σ1278b (Dubois & Grenson, 1979, Mol. Gen. Genet. 175, 67–76) were cultured in complete medium (YPD) without uracil and with 2% glucose as carbon source up to an OD600 of 0.6 at 28° C. The cells were harvested at 3000 g, washed twice with water and brought to an OD600 of 12 with sodium phosphate buffer (100 mM, pH 4.5), 1% glucose. The cell suspension was stored in 100 μl portions on ice up to the beginning of the uptake measurements. Before the start of the uptake measurements the cells were pre-incubated at 30° C. for 2 minutes. The reaction was then started, by which 100 μl of radioactively labelled substrate solution was added to 100 μl cell suspension. […] The radioactivity on the filters was finally ascertained in a liquid scintillation counter.
Substrate solution: For the substrate solution what is concerned is a 100 mM sodium phosphate buffer pH 4.5 with 1% glucose and 9.25 Bq/μl of radioactively labelled substrate (25–100 μM [^14C] adenine or [^14C] cytosine). […] When the influence of glucose on the uptake rate is measured neither the cell suspension nor the substrate solution contains glucose. […]

[2] = biological target: PUP1 (Arabidopsis thaliana, UniProt Q9FZ96, S63G); test: Voltage and current measurement in Xenopus oocytes expressing PUP1; set-up: a primer was used which demolishes the STOP codon of PUP1 and simultaneously inserts a NotI excision site; expressed in transfected cells; host or cells: Xenopus oocytes injected with in vitro transcribed RNA
PUP1, sequence (Q9FZ96 whole entry S63G): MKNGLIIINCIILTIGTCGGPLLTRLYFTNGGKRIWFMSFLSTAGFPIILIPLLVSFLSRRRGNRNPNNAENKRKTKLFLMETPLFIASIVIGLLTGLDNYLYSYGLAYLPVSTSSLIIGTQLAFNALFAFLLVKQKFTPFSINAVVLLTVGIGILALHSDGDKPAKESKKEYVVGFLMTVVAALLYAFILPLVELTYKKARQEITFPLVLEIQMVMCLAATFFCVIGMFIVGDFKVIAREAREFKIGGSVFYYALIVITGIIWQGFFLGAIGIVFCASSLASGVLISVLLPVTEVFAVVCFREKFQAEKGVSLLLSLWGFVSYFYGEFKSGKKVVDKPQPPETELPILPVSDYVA
Description: The one-way directed currents are measured as soon as adenine is added. The current strength is dependent on the concentration (bars indicate the current on the ordinate and the time on the abscissa).
The cDNA for PUP1 was excised with NotI and cloned in an oocyte expression vector containing untranslated 5′ and 3′ regions of the β-globin from Xenopus. The cDNA was then replicated by means of PCR. SP6 (from the oocyte vector) was used as upstream primer, as downstream primer a primer was used which demolishes the STOP codon of PUP1 and simultaneously inserts a NotI excision site. This PCR fragment was excised by NotI and HindIII and ligated into an oocyte expression vector which in addition contains behind the NotI excision site the gene for GFP (“green fluorescent protein” from the jellyfish). In that way an open reading-frame is constructed for a fusion protein from PUP1 and GFP. By insertion of the NotI excision site a linker with three base pairs coding for alanine is constructed. The plasmid was linearized with MIuI, and RNA was transcribed in vitro by means of SP6 polymerase and absorbed into water to about 1 ng/nl. Each oocyte (ripening stage 5 to 6) was injected with 50 nl. […]
For voltage measurement a glass electrode filled with 3M KCl was stuck into the oocyte. With a Dagan amplifier the potential was measured relative to the reference electrode. […]

[3] = biological target: T2, PUP1 nuclear base transporter (Arabidopsis thaliana, UniProt Q9FZ96); test: Uptake of radioactively labelled adenine and cytosine by yeast strain MG887ura3-::pFL61-PUP1; details: initial concentration medium 200 μM; intracellular, cell volume estimated as four times the dry weight
T2 construct: The PUP1 protein expressed by the yeast strain MG887ura3^−::pFL61-PUP1; expressed in transfected cells; host or cells: Saccharomyces cerevisiae MG887ura3- (fcy2), plasmid pFL61-PUP1
T2 sequence (Q9FZ96 whole entry S63G): as above
Description: (§1) For measuring the rate of uptake the yeast strains MG887ura3^−::pFL61, MG887ura3^−::pFL61-PUP1 and their original strain Σ1278b (Dubois & Grenson, 1979, Mol. Gen. Genet. 175, 67–76) were cultured in complete medium (YPD) without uracil and with 2% glucose as carbon source up to an OD600 of 0.6 at 28° C. The cells were harvested at 3000 g, washed twice with water and brought to an OD600 of 12 with sodium phosphate buffer (100 mM, pH 4.5), 1% glucose. The cell suspension was stored in 100 μl portions on ice up to the beginning of the uptake measurements. Before the start of the uptake measurements the cells were pre-incubated at 30° C. for 2 minutes. The reaction was then started, by which 100 μl of radioactively labelled substrate solution was added to 100 μl cell suspension. The reaction mixture was incubated at 30° C. and after 30, 60, 120 and 180 seconds in each case 50 μl of suspension was withdrawn and placed in 4 ml of ice-cold water (in measurements over 180 seconds more cell suspension and substrate solution were correspondingly added). The cells were absorbed on to glass fibre filters and washed with 4 ml of ice-cold water. The radioactivity on the filters was finally ascertained in a liquid scintillation counter.
(§2) Substrate solution: For the substrate solution what is concerned is a 100 mM sodium phosphate buffer pH 4.5 with 1% glucose and 9.25 Bq/μl of radioactively labelled substrate (25–100 μM [^14C] adenine or [^14C] cytosine). In addition the substrate solution contains the unlabelled substrate, possible inhibitors and competitors in double end-concentration. For estimation of the optimum pH the pH value of the sodium phosphate buffer is also changed. When the influence of glucose on the uptake rate is measured neither the cell suspension nor the substrate solution contains glucose. Glucose is only added after starting the uptake measurements at the commencement of measuring at an end-concentration of 1%.
(§3) In Table 1 the uptake of radioactively labelled adenine and cytosine mediated by the PUP1 nuclear base transporter is indicated by the yeast strain MG887ura3^−::pFL61-PUP1. For calculation of the intracellular concentration the cell volume is estimated as four times the dry weight (Ninnemann et al., 1994, EMBO J. 15, 3464–3471). The uptake occurs against a concentration gradient.

[4] = biological target: T3, PUP1 nuclear base transporter (Arabidopsis thaliana, UniProt Q9FZ96, S63G); test: as above
T3 construct: The PUP1 protein expressed by the yeast strain MG887ura3^−::pFL61-PUP1; expressed in transfected cells; host or cells: Saccharomyces cerevisiae MG887ura3- (fcy2), plasmid pFL61-PUP1
T3 sequence (Q9FZ96 whole entry S63G): as above
Description: as §1, §2, §3

[5] = biological target: T4, PUP2 (Arabidopsis thaliana, UniProt Q94GB1); test: Adenine transport by PUP2
T4 construct: expressed in transfected cells; host or cells: Saccharomyces cerevisiae (inferred)
T4 sequence (Q94GB1 1-347 isoform Q94GB1-2): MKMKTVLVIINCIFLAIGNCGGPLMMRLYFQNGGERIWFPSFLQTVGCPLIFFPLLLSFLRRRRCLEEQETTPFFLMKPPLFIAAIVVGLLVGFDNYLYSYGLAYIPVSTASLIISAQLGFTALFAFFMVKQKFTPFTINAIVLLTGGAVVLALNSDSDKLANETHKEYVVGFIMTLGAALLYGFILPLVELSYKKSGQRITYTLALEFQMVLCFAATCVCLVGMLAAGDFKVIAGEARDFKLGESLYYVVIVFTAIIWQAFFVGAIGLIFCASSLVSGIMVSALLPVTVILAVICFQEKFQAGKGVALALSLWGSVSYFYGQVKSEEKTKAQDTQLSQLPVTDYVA
Description: as §2

Nc1ncnc2nc[nH]c12 [Adenine, adenine]
Uptake of radioactively labelled adenine (set at 100%) [1]: 0.9 nmol.min^−1 .mg^−1 dry weight | Effect on oocyte membrane potential ([2]; adenine in the bath solution, resting potential about -30 mV at pH 7.3): provokes depolarization of the oocyte | Effect on current ([2]; oocytes held at a voltage of -80 mV): induces a current in one direction | End conc Cells [3]: 2350 µM | Enrichment factor ([4]; cells versus medium, initial concentration medium 200 μM): 15 | End conc. Medium ([4]; initial concentration medium 200 μM, yeast strain MG887ura3-::pFL61-PUP1): 155 µM | Uptake of radioactively labelled adenine (set at 100%) ([4]; substrate concentration 25 μM, PUP1 expressed in yeast): 1.7 nmol.min^−1 .mg^−1 dry weight | Transport by PUP2 [5]: in a position to transport adenine
